In test [1] the target is T1, SpSte2 with SpSxa2 or other fungal proteases (Schizosaccharomyces pombe, UniProt Q00619).
T1 construct: we cloned codon-optimized open reading frames (ORFs) of all 5 proteases and GPCRs; expressed in transfected cells; host or cells: S. cerevisiae strains from yTC370 (yTC530, yTC529, yTC531-534, yTC525, yTC526); two genome-integrated pTDH3-SpSTE2 copies
T1 sequence (Q00619 1-348): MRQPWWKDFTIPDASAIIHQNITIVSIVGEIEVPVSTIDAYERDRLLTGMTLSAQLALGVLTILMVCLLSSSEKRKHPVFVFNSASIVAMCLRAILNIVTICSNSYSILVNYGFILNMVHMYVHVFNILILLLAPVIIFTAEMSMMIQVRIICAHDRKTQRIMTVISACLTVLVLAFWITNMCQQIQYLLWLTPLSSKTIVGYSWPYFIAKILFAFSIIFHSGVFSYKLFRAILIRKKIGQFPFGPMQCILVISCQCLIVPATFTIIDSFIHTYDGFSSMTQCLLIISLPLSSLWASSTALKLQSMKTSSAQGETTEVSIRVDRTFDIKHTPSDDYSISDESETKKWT
Put plainly: Dose-response of SpSte2 fluorescent strains with cognate or noncognate proteases. The class given is cell-based. As for the experimental part:
(§1) Glycerol stocked strains were streaked out on YPD plate and incubated for 2 days. Three colonies were picked, replated on YPD plate, incubated for 1 day, and then stored at 4 °C. For activation assays, a small scoop of yeast patch from the 3 colonies was resuspended in ~4 ml of YPD medium and incubated overnight. Overnight cells were seeded at an optical density at 600 nm (OD600) of 0.15 (as measured in 96-well plate at 200-μl volume) in SC/Glc medium after washing twice with sterile Mili-Q H2O. GPCR activity and response to increasing concentrations of synthetic peptide ligands were measured in strains carrying appropriate genome-integrated components in 96-well microtiter plates in 200-μl total volume and cultured at 30 °C and 800 rpm, unless otherwise stated. All measurements were performed in biological triplicate. Culture turbidity (OD600) and fluorescence for ymTurquoise2 (excitation, 439 nm; emission, 475 nm; gain, 75) were measured after 0 and 8 h using an Infinite 200 Pro plate reader (Tecan). Dose–response curve was measured at 11 different concentrations of the appropriate synthetic peptide ligand with a constant dilution factor and a no-peptide, H2O control. The absorbance at 600 nm normalized fluorescence values and log10-transformed peptide concentrations were fit to a 4-parameter nonlinear regression model using Prism (GraphPad) to extract GPCR-specific values for basal activation, maximal activation, EC50, and the Hill coefficient.
(§2) To validate the effect of peptide proteases on their complementary and noncomplementary peptides (Table S8), from the parent strain yTC370, we engineered 30 strains (Table S1).
(§3) Next, to validate whether we can control the extent of peptide cleavage by their cognate proteases by modulating the concentration of expressed protease, we constitutively expressed proteases under promoters of different expression levels. For the purpose of determining the protease’s specificity in previous section (S1), all proteases were expressed under pCCW12, which is one of the strongest characterized promoters in yeast. Here, we introduced 2 additional promoters to convey medium and low expression levels of the proteases. We selected pRPL18B for medium expression and pRAD27 for low expression level. We cloned these promoters upstream from protease ORFs in Golden Gate cassette plasmids, assembled the protease cassettes with their cognate GPCRs and fluorescent readout, and integrated into parent yTC370 strain (see Materials and Methods and Table S1). Then, we compared dose–response curves of strains responding to their cognate peptides without the protease or with protease at 3 different expression levels (low, medium, and high) (S2).

In test [2] the test system is SjSte2 with SjSxa2 or other fungal proteases. Put plainly: Dose-response of SjSte2 fluorescent strains with cognate or noncognate proteases. It is filed as cell-based, Schizosaccharomyces japonicus. The procedure:
as §1, §2, §3

Test [3] has as its system SoSte2 with SoSxa2 or other fungal proteases. Kind of test: Dose-response of SoSte2 fluorescent strains with cognate or noncognate proteases. It is filed as cell-based, Schizosaccharomyces octosporus. The procedure:
as §1, with “coefficient. […]” for “coefficient.”
Next, to validate whether we can control the extent of peptide cleavage by their cognate proteases by modulating the concentration of expressed protease, we constitutively expressed proteases under promoters of different expression levels. […] We cloned these promoters upstream from protease ORFs in Golden Gate cassette plasmids, assembled the protease cassettes with their cognate GPCRs and fluorescent readout, and integrated into parent yTC370 strain (see Materials and Methods and Table S1). […]

The mark [4] stands for this setting: noncomplementary proteases, pCCW12, fluorescent readout.

Peptide text beside a SMILES is read from it. Where only a bound is given, the exact number is not on record here.

Sequence of SoSte2 with SoSxa2 or other fungal proteases (as listed by the source): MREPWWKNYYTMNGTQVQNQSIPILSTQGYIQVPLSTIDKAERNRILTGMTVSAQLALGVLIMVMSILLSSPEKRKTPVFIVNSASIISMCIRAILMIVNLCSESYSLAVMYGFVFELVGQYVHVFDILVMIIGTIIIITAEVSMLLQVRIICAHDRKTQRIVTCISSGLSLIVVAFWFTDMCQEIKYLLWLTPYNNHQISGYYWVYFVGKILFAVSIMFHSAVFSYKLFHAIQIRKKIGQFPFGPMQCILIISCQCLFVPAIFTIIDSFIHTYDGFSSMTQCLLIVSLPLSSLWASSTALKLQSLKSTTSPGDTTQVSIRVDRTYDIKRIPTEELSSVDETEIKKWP
Sequence of SjSte2 with SjSxa2 or other fungal proteases (as listed by the source): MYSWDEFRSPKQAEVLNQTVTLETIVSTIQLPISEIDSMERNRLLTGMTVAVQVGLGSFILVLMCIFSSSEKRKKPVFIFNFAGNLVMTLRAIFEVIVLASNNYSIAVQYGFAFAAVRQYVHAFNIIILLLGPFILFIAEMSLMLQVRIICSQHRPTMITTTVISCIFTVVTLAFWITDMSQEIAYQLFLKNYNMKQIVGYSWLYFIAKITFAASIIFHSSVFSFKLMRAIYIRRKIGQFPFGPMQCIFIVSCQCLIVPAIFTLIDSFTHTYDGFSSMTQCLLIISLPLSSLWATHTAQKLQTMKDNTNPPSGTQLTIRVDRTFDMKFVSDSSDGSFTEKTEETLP

For `CC(C)C[C@H](NC(=O)[C@H](CC(N)=O)NC(=O)[C@@H]1CCCN1C(=O)[C@H](CCCNC(=N)N)NC(=O)[C@H](CC(=O)O)NC(=O)[C@@H]1CCCN1C(=O)[C@H](CC(N)=O)NC(=O)[C@@H](NC(=O)[C@H](Cc1ccccc1)NC(=O)[C@@H](NC(=O)[C@H](CC(N)=O)NC(=O)[C@H](Cc1c[nH]c2ccccc12)NC(=O)[C@H](CO)NC(=O)[C@H](CCC(N)=O)NC(=O)[C@H](Cc1ccc(O)cc1)NC(=O)[C@H](C)NC(=O)[C@H](CCCNC(=N)N)NC(=O)[C@H](CC(C)C)NC(=O)[C@H](Cc1ccccc1)NC(=O)[C@H](CC(=O)O)NC(=O)[C@H](C)NC(=O)[C@H](Cc1ccc(O)cc1)NC(=O)[C@@H](N)[C@@H](C)O)[C@@H](C)O)C(C)C)C(=O)O` [SpPep] (H-TYADFLRAYQSWNTFVNPDRPNL-OH; N-terminus and C-terminus assumed), the “effect of cognate protease SpSxa2 on response” value in test [1] (SpSxa2 under pCCW12 (high expression), fluorescent readout, 8 h) is on record as “practically completely attenuated the response”. The “EC50 shift with low SpSxa2 expression” value in test [1] (SpSxa2 under pRAD27 (low expression), fluorescent readout, 8 h) is listed as “did not show notable apparent EC50 shift”. The “EC50 shift with medium SpSxa2 expression” value in test [1] (SpSxa2 under pRPL18B (medium expression), fluorescent readout, 8 h) is ~2 orders of magnitude. In test [1] (setting [4]), the “cleavage by ScBar1 and CaBar1” value is “did not cleave”. Further, the “apparent EC50 with complementary protease SpSxa2” value in test [1] (out of the measurable peptide concentration range, pCCW12, fluorescent readout) is above 100 µM. Moreover, the “apparent EC50 shift with noncomplementary proteases SjSxa2 and SoSxa2” value in test [1] (pCCW12, fluorescent readout) was “between half and one order of magnitude”.

With “VSDRVKQMLSHWWNFRNPDTANL [SjPep, S. japonicus pheromone peptide, synthetic]”, the “apparent EC50 shift with complementary protease SjSxa2” value in test [2] (SjSxa2 under pCCW12 (high expression), fluorescent readout, 8 h) was “over one order of magnitude”. In test [2] (SjSxa2 under pRAD27 (low expression)), the “EC50 shift with low SjSxa2 expression” value is listed as “did not affect EC50”. In addition, the “apparent EC50 shift with medium and high SjSxa2 expression” value in test [2] (SjSxa2 under pRPL18B and pCCW12, out of measurable range (>100 μM)) is reported as “more than 2 orders of magnitude”. Besides, in test [2] (out of the measurable peptide concentration range, pCCW12, fluorescent readout, read-out: apparent EC50 with complementary protease SjSxa2), the EC50 was above 100 µM.

For “TYEDFLRVYKNWWSFQNPDRPDL [SoPep, S. octosporus pheromone peptide, synthetic]”, in test [3] (SoSxa2 under pRAD27 or pRPL18B, compared to strain with no protease), the “EC50 shift with low and medium SoSxa2 expression” value is reported as “did not notably shift the apparent EC50”. Moreover, the “cleavage by ScBar1 and CaBar1” value in test [3] (setting [4]) was “did not cleave”. In test [3] (pCCW12, fluorescent readout), the “apparent EC50 shift with noncomplementary proteases SjSxa2 and SpSxa2” value was “between half and one order of magnitude”.

By EC50 is commonly meant the midpoint of the concentration-response curve.

The record behind these values is article PMC10084949, “Peptide Variant Detection by a Living Yeast Biosensor via an Epitope-Selective Protease” (Biodesign Research, 2023).
